Test results as given in patent US20130296370A1, “COMPOSITION COMPRISING A PHOTOACTIVATABLE LARVICIDE” (UNIVERSITA DEGLI STUDI DI PADOVA, priority 2010, published 2013).

How the values were obtained:
[1] = system: Chlamydomonas reinhardtii; experiment: Dark- and photo-toxic activity of free C12 on breeding site biota; format: in vivo; details: vegetative cells; 1 h incubation; visible light 10 mW/cm^2
Experimental: (§1) The dark- and photo-toxic activity of free C12 (wherein C12 means porphyrin C12) was tested on representative components of mosquito's breeding sites biota, the results are shown in table 6, as minimal photosensitizing dose (μM). […] Sensitivity to phototreatment (visible light, 10 mW/cm^2) was obviously different, as C. inflate trophozoites and even cysts were highly photosensitive, while Artemia franciscana nauplii appeared to be highly resistant.

[2] = system: Artemia franciscana; experiment: as above; format: in vivo; details: nauplii; 1 h incubation; visible light 10 mW/cm^2
Experimental: as §1

[3] = system: Daphnia magna; experiment: as above; format: in vivo; details: young individuals; 1 h incubation; visible light 10 mW/cm^2
Experimental: as §1

[4] = C12 photo-bleaching in water; format: physicochemical; details: free porphyrin in water; 1 hour irradiation, visible light 150 mW/cm^2
Experimental: Moreover, with the aim to determine the level of degradation of the free porphyrin in the water after exposure to sunlight, the rate of C12 photo-bleaching was followed spectrophotometrically by measuring the porphyrin absorption spectrum in the 350-700 nm range upon exposure to visible light at a fluence rate of 150 mW/cm^2. After 1 hour irradiation the porphyrin concentration decreased up to 50%.

[5] = system: Tetrahymena thermophila; details: in vivo
Experimental: as §1

[6] = system: Artemia franciscana; experiment: Effect of free porphyrin on non-target organisms of aqueous habitats; format: in vivo; details: 1 h irradiation, fluorescent lamp
Experimental: (§2) The effect of free porphyrin, wherein porphyrin means porphyrin C12, dissolved in water on the photosensitivity of potential aqueous non-target organisms was evaluated on Colpoda inflata, Artemia franciscana and Daphnia magna, a protozoan and two crustacean organisms frequently found in aqueous environments. The mortality data were recorded after 1 h irradiation with visible light emitted by a fluorescent lamp.

[7] = system: Daphnia magna; experiment: as above; format: in vivo; details: 1 h irradiation, fluorescent lamp
Experimental: as §2

[8] = system: Colpoda inflata; experiment: as above; format: in vivo; details: 1 h irradiation, fluorescent lamp
Experimental: as §2

[9] = system: Anopheles spp; experiment: Tray larvicide test on field-collected mosquitoes; format: in vivo; details: sunlight
Experimental: (§3) Laboratory strains of Anopheles stephensi, M and S (Kisumu), chromosomal forms of An. gambiae, An. arabiensis and Aedes aegypti, as well as field-collected Anopheles spp. and Aedes spp. larvae were used. Laboratory mosquitoes were maintained at 28-30° C., >90% RH and a photoperiod of 12 h. Light intensity ranged between 0.5 mW/cm^2 (fluorescent lamp) and 185 mW/cm^2 (sunlight).
(§4) C12 or C14 porphyrin solutions at 5-100 μM concentrations were pre-incubated at room temperature in the darkness with 15-60 mg of carrier (either Eudragit or ground mouse food or cat food) for 4-12 hours under gentle shaking. After incubation the solutions were filtered, and the loaded carrier was dried at room temperature or in an oven (45° C.).
(§5) One litre capacity, transparent plastic trays containing wells with each 500 ml water and 6-60 mg of the composition of the present invention were prepared. Batches of 60-100 L2, L3 or L4 larvae were introduced into the trays after sunset (or artificial light off). Larval mortality was evaluated the next day starting from 8.00 am, and the time required to reach at least 90% mortality was recorded. Larvae not moving or not showing an escaping response at probing were defined as dead or dying, and counted together (Tables 2 and 3). Pupae occasionally formed throughout the irradiation time were discarded and excluded from the evaluation. An equal number of batches of larvae prepared in the same way were kept in continuous darkness and mortality was evaluated similarly, to assess toxicity in the dark.
(§6) Each result derives from an independent, representative experiment. Light source: sunlight in all cases, intensity range: 4-185 mW/cm^2

[10] = system: Anopheles spp + Aedes spp; experiment: Tray larvicide test on field-collected mosquitoes; format: in vivo; details: carrier Eudragit; 30 mg per tray; loading concentration 50 μM; sunlight
Experimental: as §3, §4, §5, §6

[11] = system: An. stephensi; experiment: Laboratory-scale tray larvicide test; format: in vivo; details: carrier mouse food; 6 mg per tray; loading concentration 0.64 μM; fluorescent lamp
Experimental: as §3, §4, §5
(§7) Light intensity range: 0.5-185 mW/cm^2.

[12] = system: An. arabiensis; experiment: Laboratory-scale tray larvicide test; format: in vivo; details: sun
Experimental: as §3, §4, §5, §7

[13] = system: Anopheles gambiae Kisumu strain (S); experiment: Laboratory-scale tray larvicide test; format: in vivo; details: sun
Experimental: as §3, §4, §5, §7

[14] = system: An. gambiae (M); experiment: Laboratory-scale tray larvicide test; format: in vivo; details: sun
Experimental: as §3, §4, §5, §7

[15] = system: Culex sp.; details: cited from earlier work
[16] = carrier Eudragit, 30 mg per tray, loading concentration 25 μM
[17] = carrier cat food, 30 mg per tray, loading concentration 50 μM
[18] = carrier Eudragit, 30 mg per tray, loading concentration 50 μM
[19] = carrier Eudragit, 15 mg per tray, loading concentration 25 μM

CCCCCCCCCCCC[n+]1ccc(-c2c3nc(c(-c4cc[n+](C)cc4)c4ccc([nH]4)c(-c4cc[n+](C)cc4)c4nc(c(-c5cc[n+](C)cc5)c5ccc2[nH]5)C=C4)C=C3)cc1 [C12, meso-tri(N-methyl-pyridyl), mono(N-dodecyl-pyridyl)porphine]
minimal photosensitizing dose [1]: 0.2 µM
minimal photosensitizing dose [2]: >10.0 µM
minimal photosensitizing dose [3]: 0.3 µM
decrease of porphyrin concentration (photo-bleaching) [4]: up to 50%
minimal photosensitizing dose [5]: 3.0 µM
LD-50 [6]: >10.0 µM
Mortality (%) ([6]; porphyrin dose 6.0 μM): 20%
LD-50 [7]: 0.3 µM
Mortality (%) ([7]; porphyrin dose 0.3 μM): 50%
LD-50 ([8]; cysts): >1.0 µM
Mortality (%) ([8]; cysts, porphyrin dose 1.0 μM): 20%
LD-50 ([8]; trophozoites): 1.0 µM
Mortality (%) ([8]; trophozoites, porphyrin dose 0.6 μM): 40%
Time to reach ≧90% mortality ([9]; carrier Eudragit, 15 mg per tray, loading concentration 15 μM): 3 h
Time to reach ≧90% mortality [9, 16]: 0.5 h
Time to reach ≧90% mortality [9, 17]: 3 h
Time to reach ≧90% mortality [10]: 0.5 h
Time to reach ≧90% mortality [11]: 6 h
Time to reach ≧90% mortality ([12]; carrier Eudragit, 15 mg per tray, loading concentration 5 μM): 3 h
Time to reach ≧90% mortality [12, 18]: 0.5 h
Time to reach ≧90% mortality [12, 17]: 3 h
Time to reach ≧90% mortality [13, 19]: 0.5 h
Time to reach ≧90% mortality ([13]; carrier Eudragit, 15 mg per tray, loading concentration 50 μM): 0.5 h
Time to reach ≧90% mortality [13, 16]: 0.5 h
Time to reach ≧90% mortality [13, 18]: 0.5 h
Time to reach ≧90% mortality ([13]; carrier Eudragit, 60 mg per tray, loading concentration 50 μM): 0.5 h
Time to reach ≧90% mortality ([13]; carrier cat food, 30 mg per tray, loading concentration 25 μM): 8 h
Time to reach ≧90% mortality [13, 17]: 0.5 h
Time to reach ≧90% mortality ([13]; carrier cat food, 30 mg per tray, loading concentration 100 μM): 0.5 h
Time to reach ≧90% mortality ([13]; carrier cat food, 60 mg per tray, loading concentration 100 μM): 0.5 h
Time to reach ≧90% mortality [14, 19]: 0.5 h
Time to reach ≧90% mortality [14, 17]: 3 h

CC1=C(CCC(=O)O)c2cc3[nH]c(cc4nc(cc5[nH]c(cc1n2)c(C)c5C(C)O)C(C)=C4C(C)O)c(C)c3CCC(=O)O (stereo not shown) [hematoporphyrin]
mortality ([15]; semi-field, 10^−5 M, after 3 days under natural sunlight): 100%

chlorophyllin
LD50 ([15]; laboratory, added to larval breeding water, after 3 h exposure to light intensity 146.66 W/m^2): 6.88 g/L
